The results in this text go back to US20060160777A1, “New use of GABAbeta receptor agonists” (priority 2004, published 2006).

Read-outs that look alike come from different tables or passages of the source.

Series [1] relates to citric acid-induced cough in conscious guinea pigs. Description: Citric acid-induced cough in conscious guinea pigs, GABAB agonists given subcutaneously. Format: in vivo, guinea pig. The source says: Citric acid-induced cough was evoked in conscious guinea pigs. Male Hartley guinea pigs (300-400 g) were placed in a chamber with a continuous flow of air. Positive and negative pressure changes within the chamber were used to monitor the expiratory and inspiratory phases of respiration. A nebuliser was connected in series with the air pump, allowing aerosol delivery of citric acid (0.1-1 M).
Cough was defined based on the visual appearance of the respiratory manoeuvre, the characteristic sound, and by a signature pressure trace typified by an expiratory effort that produced a positive chamber pressure 10-20 times higher than that associated with tidal breathing and proceeded by a rapid and pronounced inspiratory effort. All data were recorded digitally. The total number of coughs and the estimated concentration of citric acid evoking 1, 2 and 5 coughs were determined for each experiment.
(§1) Four treatment groups were employed in this study: Vehicle control, baclofen, (2R)-(3-amino-2-fluoropropyl) phosphinic acid and (3-aminopropyl) phosphinic acid (3-APPiA). […] […] To assess CNS depressant effects of these compounds, their effects on respiratory rate and respiratory pattern (inspiratory and expiratory times) were assessed and compared to control.

A short description of series [2]: Pharmacokinetics in female dogs after single intravenous and oral doses. Format: in vivo, dog. The settings on record: for half-life / clearance / Vd: Beagle and Labrador; for Vd: read-out: Vss (volume of distribution at steady state); for F (oral availability): oral vs intravenous. How it is done: In the present studies dogs received single intravenous and oral doses of 3-APPiA, (2R)-(3-amino-2-fluoropropyl) phosphinic acid (A), (2S)-(3-amino-2-hydroxypropyl) phosphinic acid A), (3-amino-2-oxopropyl) phosphinic acid (C) and 3-amino-2-fluoropropyl) phosphinic acid (D) at therapeutic doses. The plasma concentrations of each compound was determined by LC-MS. The mean values of the total plasma clearance (CL), the half-life (TA), the volume of distribution at steady state (Vs), the oral availability (F), are summarised in Table 5.
Eight female Beagle and four Labrador dogs were used. The dogs were identified by a number tattooed in the ear. The animals had free access to water and were fed once a day (GLP diet) at approximately 1 p.m. On the experimental day, the dogs had not eaten since approximately 1 p.m. on the day before and were not allowed to eat until 6 hours after dosing.
The test formulations were administered intravenously in a superficial front leg vein (this vein was not used for blood sampling during 2 hours after dosing) or orally by gavage. The gavage tube was rinsed with about 20 mL of water and emptied with 20 mL of air before it was taken out. The oral and intravenous dose volumes were 1 and 0.5 mL/kg, respectively
Blood samples of about 2 mL were taken from a superficial front leg vein pre-dose and at 5, 10, 20, 40, 90 minutes, 3, 5, 8 and 24 hours after dosing. The blood samples were collected in heparinized glass tubes (Venoject®) and centrifuged (10 min, 3000 g, +4° C.). The plasma was then transferred to plastic tubes and stored at about −20° C. until analysis.
The pharmacokinetic parameters were calculated by non-compartment analysis using WinNonlin Professional (Pharsight Corporation, California, USA). The area under the plasma concentration-time curve (AUC(0-t)) was calculated using a combination of the linear and logarithmic trapezoidal rule from the time of administration to the sampling time with the last determinable plasma concentration (3, 5, 8 or 24 h). For the intravenous bolus dose, the concentration at time zero (C(0)) was estimated by log-linear regression of the first two concentration-time points. The AUC(0-t) was extrapolated to infinity by adding Ct/k. Ct was the predicted plasma concentration at the time of the last plasma sample with a determinable concentration and k was the apparent terminal rate constant. Ct and k were obtained by linear least-squares regression analysis of the logarithm of the last 3 to 5 plasma concentrations versus time. The apparent terminal half-life (t1/2) was calculated as In 2/k, wherein k is elimination constant, i.e. the slope of the decreasing curve.
The oral bioavailability (F) for each dog was calculated from individual AUC (area under the curve) and dose values. The calculation was made as follows: (AUCpo·Doseiv/AUCic·Dosepo)·100.
Estimates of total plasma clearance and of volume of distribution were calculated from plasma concentration data obtained after intravenous bolus injection. The total plasma clearance (CL) was calculated as Dosei.v./AUCi.v., and the volume of distribution at steady is state (Vss) was calculated as MRTi.v.·CL. The mean residence time after intravenous administration (MRTi.v.) was calculated as AUMC/AUC for bolus injection, wherein AUMC is the area under the first-moment versus time curve. The results are presented by descriptive statistics. The pharmacokinetic parameters are presented as geometric mean and range.

For a further series, the system named is conscious guinea pigs. Description: Effects of subcutaneously administered GABAB agonists on baseline respiratory rate in conscious guinea pigs. To be noted: placebo 96.2 ± 3.8. How it is done: as §1
B. Effects of Subcutaneously Administered GABAB Agonists on Baseline Respiratory Rate in Conscious Guinea Pigs

[3] abbreviates: 0.3 mg/kg s.c., 30 min before challenge, citric acid 0 M, mean ± spread.
[4] abbreviates: 0.3 mg/kg s.c., citric acid 0.01 M.
The mark [5] stands for this setting: 0.3 mg/kg s.c., citric acid 0.1 M.
Setting [6] is: 0.3 mg/kg s.c., citric acid 0.3 M.
The mark [7] stands for this setting: 0.3 mg/kg s.c., citric acid 1 M.
[8] abbreviates: 3 mg/kg s.c., citric acid 0.01 M.
Where [9] appears, read: 3 mg/kg s.c., citric acid 0.1 M.
The mark [10] stands for this setting: 3 mg/kg s.c., citric acid 0.3 M.
Setting [11] is: dog, in vivo, female dogs, geometric mean, dose 2-7 μmol/kg per compound, read-out: T1/2 (half-life) (converted).
Where [12] appears, read: dog, in vivo, female dogs, intravenous bolus, geometric mean, dose 2-7 μmol/kg per compound, read-out: CL (total plasma clearance).
[13] abbreviates: dog, in vivo, female dogs, intravenous bolus, geometric mean, dose 2-7 μmol/kg per compound.
Setting [14] is: female dogs, geometric mean, dose 2-7 μmol/kg per compound.

As to `NC[C@@H](F)C[PH](=O)O` [A, (2R)-(3-amino-2-fluoropropyl) phosphinic acid], the “Cumulative number of coughs evoked by citric acid” value (shortened to “Cumulative number of coughs evoked”) in series [1] (setting [3]) was 0 ± 0; in series [1] (setting [4]) it was 0 ± 0; in series [1] (setting [5]), 3.4 ± 1.1; in series [1] (setting [6]) it was 11.4 ± 1.3; in series [1] (setting [7]), 27.6 ± 3.7; in series [1] (3 mg/kg s.c., citric acid 0 M) it was 0 ± 0. For the same compound, the “Cumulative number of coughs evoked” value in series [1] (setting [8]) is listed as 0.1 ± 0.1; in series [1] (setting [9]) it was 1.9 ± 1.1; in series [1] (setting [10]) it was 9.0 ± 3.8; in series [1] (3 mg/kg s.c., citric acid 1 M) it was 15.4 ± 3.6; in series [1] (10 mg/kg s.c., citric acid 0 M) it was 0 ± 0; in series [1] (10 mg/kg s.c., citric acid 0.01 M) it was 0 ± 0. Further, the “Cumulative number of coughs evoked” value in series [1] (10 mg/kg s.c., citric acid 0.1 M) is given as 0.6 ± 0.3; in series [1] (10 mg/kg s.c., citric acid 0.3 M) it was 3.8 ± 1.3; in series [1] (10 mg/kg s.c., citric acid 1 M), 9.7 ± 1.9. The half-life in series [2] (female, dog, in vivo) was 7.5 h. Also, the clearance in series [2] (female, dog, in vivo, iv) is 2.1 mL/min/kg.
As to `NC[C@H](O)C[PH](=O)O` [B, (2S)-(3-amino-2-hydroxypropyl) phosphinic acid], the half-life in series [2] (setting [11]) was 0.5 h. Further, the clearance in series [2] (setting [12]) is 6.67 mL/min/kg. Besides, the Vd in series [2] (setting [13]) was determined as 0.25 L/kg. The “F (oral availability)” value in series [2] (setting [14]) is 86%.
Take `NCC(CC(=O)O)c1ccc(Cl)cc1` (stereo not drawn) [Baclofen, 4-amino-3-(chlorophenyl)butanoic acid]: the “Cumulative number of coughs evoked” value in series [1] (setting [3]) is reported as 0 ± 0; in series [1] (setting [4]), 1.0 ± 0; in series [1] (setting [5]) it was 3.0 ± 0.6; in series [1] (setting [6]), 12.3 ± 7.4; in series [1] (setting [7]), 25.7 ± 4.8; in series [1] (3 mg/kg s.c., citric acid 0 M), 0 ± 0. The “Cumulative number of coughs evoked” value in series [1] (setting [8]) came out at 0 ± 0; in series [1] (setting [9]) it was 1.0 ± 0.5; in series [1] (setting [10]), 6.0 ± 1.9; in series [1] (3 mg/kg s.c., citric acid 1 M), 14.3 ± 3.8. The entries for the “Baseline respiratory rate (result of study B, mean)” value (from here on “Baseline respiratory rate”) in the series with conscious guinea pigs (0.3 mg/kg s.c.) and with conscious guinea pigs (3 mg/kg s.c.) were 96.8 ± 8.5 and 78.1 ± 17.6, respectively.
Turning to `NCC(=O)C[PH](=O)O` [C, (3-amino-2-oxopropyl) phosphinic acid], the half-life in series [2] (setting [11]) is 2.5 h. For the same compound, in series [2] (setting [12]), the clearance was 8.2 mL/min/kg. Also, in series [2] (setting [13]), the Vd was 0.74 L/kg. Further, the “F (oral availability)” value in series [2] (setting [14]) came to 60%.
With `NCCC[PH](=O)O` [Compound 3-APPiA, (3-aminopropyl) phosphinic acid], the “Cumulative number of coughs evoked” value was 0 ± 0 in series [1] (setting [3]); 0 ± 0 in series [1] (setting [4]); 0.2 ± 0.2 in series [1] (setting [5]); 7.8 ± 3.0 in series [1] (setting [6]); 28.8 ± 2.9 in series [1] (setting [7]); 0 ± 0 in series [1] (3 mg/kg s.c., citric acid 0 M). The “Cumulative number of coughs evoked” value turned out to be 0 ± 0 in series [1] (setting [8]); 1.7 ± 0.9 in series [1] (setting [9]); 3.9 ± 1.6 in series [1] (setting [10]); 16.1 ± 5.2 in series [1] (3 mg/kg s.c., citric acid 1 M). Also, the figures for the “Baseline respiratory rate” value with conscious guinea pigs (0.3 mg/kg s.c.) and with conscious guinea pigs (3 mg/kg s.c.) were 93.0 ± 5.6 and 97.9 ± 4.2, respectively. Also, the half-life in series [2] (setting [11]) was 0.52 h. The clearance in series [2] (setting [12]) amounted to 20 mL/min/kg. Moreover, the Vd in series [2] (setting [13]) was found to be 0.55 L/kg. Moreover, the “F (oral availability)” value in series [2] (setting [14]) stood at 10%.
Regarding `NCC(F)C[PH](=O)O` (stereo not drawn) [D], the “T1/2 (half-life)” value in series [2] (dog, in vivo) is recorded as 8.2 h. Moreover, in series [2] (dog, in vivo, iv), the “CL (total plasma clearance)” value worked out at 5.2 mL/min/kg and the “Vss (volume of distribution at steady state)” value is on record as 2.3 L/kg.
In the case of `CP(=O)(O)CCCN` [SKF97541, (3-aminopropyl)methyl phosphinic acid], the “Cumulative number of coughs evoked” value in series [1] (setting [3]) is given as 0 ± 0; in series [1] (setting [4]), 0 ± 0; in series [1] (setting [5]), 0.4 ± 0.2; in series [1] (setting [6]), 3.8 ± 1.6; in series [1] (setting [7]), 19.2 ± 5.8. In addition, the figures for the “Baseline respiratory rate” value in the series with conscious guinea pigs (0.1 mg/kg s.c.) and with conscious guinea pigs (0.3 mg/kg s.c.) were 79.2 ± 16.5 and 68.6 ± 6.0, respectively.
